Assay results published in ChEMBL document CHEMBL1201862, “PubChem BioAssay data set” (2004).
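Compound exposure: 48 hours, 5 concentrations, 96-well plates. Here, GI50 denotes the concentration required for 50% inhibition of growth.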 Calls of active or inactive are those of the source. No stated cut-off is given here; in the data, active = GI50 up to about 1.1 µM and inactive = higher.

Tests used:
Test in all cases: DTP human tumour cell line panel, 48 h
T47D = tested on: T47D
UO-31 = tested on: UO-31
RXF 393 = tested on: RXF 393
MCF7 = tested on: MCF7
OVCAR-5 = tested on: OVCAR-5
MDA-MB-231 = tested on: MDA-MB-231
HL-60 = tested on: HL-60
HCT-116 = tested on: HCT-116
COLO 205 = tested on: COLO 205
OVCAR-8 = tested on: OVCAR-8
SK-OV-3 = tested on: SK-OV-3
NCI/ADR-RES = tested on: NCI/ADR-RES
OVCAR-3 = tested on: OVCAR-3
SF-295 = tested on: SF-295
TK-10 = tested on: TK-10
786-0 = tested on: 786-0
SK-MEL-2 = tested on: SK-MEL-2
KM12 = tested on: KM12
HOP-62 = tested on: HOP-62
HOP-92 = tested on: HOP-92

Row | Structure (SMILES) | GI50 (T47D) | GI50 (UO-31) | GI50 (RXF 393) | GI50 (MCF7) | GI50 (OVCAR-5) | GI50 (MDA-MB-231) | GI50 (HL-60) | GI50 (HCT-116) | GI50 (COLO 205) | GI50 (OVCAR-8) | GI50 (SK-OV-3) | GI50 (NCI/ADR-RES) | GI50 (OVCAR-3) | GI50 (SF-295) | GI50 (TK-10) | GI50 (786-0) | GI50 (SK-MEL-2) | GI50 (KM12) | GI50 (HOP-62) | GI50 (HOP-92)
1 | COC(=O)/C=C/CC(=O)NS(C)(=O)=O | > 10 µM (inactive) | > 10 µM (inactive) | > 10 µM (inactive) | > 10 µM (inactive) | > 10 µM (inactive) | > 10 µM (inactive) | > 10 µM (inactive) | > 10 µM (inactive) | > 10 µM (inactive) | > 10 µM (inactive) | > 10 µM (inactive) | > 10 µM (inactive) | > 10 µM (inactive) | > 10 µM (inactive) | > 10 µM (inactive) | > 10 µM (inactive) | > 10 µM (inactive) | > 10 µM (inactive) | > 10 µM (inactive) | –
2 | CC1OC(OC2C(O[C@H]3CC[C@@]4(C)C(=CC[C@H]5[C@@H]6C[C@@H]7O[C@]8(CC[C@H](C)CN8)[C@@H](C)[C@@H]7[C@@]6(C)CC[C@@H]54)C3)OC(CO)C(O)C2OC2OC(CO)C(O)C(O)C2O)C(O)C(O)C1O (some centres not stated) | 19.5 µM (inactive) | 19.1 µM (inactive) | 15.8 µM (inactive) | 16.9 µM (inactive) | 14.8 µM (inactive) | 21.4 µM (inactive) | 15.5 µM (inactive) | 20.1 µM (inactive) | 17.9 µM (inactive) | 15.5 µM (inactive) | 16.9 µM (inactive) | 16.4 µM (inactive) | – | 18.4 µM (inactive) | 17.3 µM (inactive) | 24 µM (inactive) | 18.4 µM (inactive) | 20 µM (inactive) | – | 17.5 µM (inactive)
3 | COP(=O)(/C=C/C(NC(=O)C(Cl)(Cl)Cl)c1ccccc1)OC (configuration not stated) | > 100 µM (inactive) | > 100 µM (inactive) | > 100 µM (inactive) | > 100 µM (inactive) | > 100 µM (inactive) | > 100 µM (inactive) | > 100 µM (inactive) | > 100 µM (inactive) | > 100 µM (inactive) | > 100 µM (inactive) | > 100 µM (inactive) | > 100 µM (inactive) | > 100 µM (inactive) | > 100 µM (inactive) | > 100 µM (inactive) | > 100 µM (inactive) | > 100 µM (inactive) | > 100 µM (inactive) | > 100 µM (inactive) | > 100 µM (inactive)
4 | Nc1nccc2c1ncn2C1C=C(CO)C(O)C1O (configuration not stated) | > 100 µM (inactive) | 3.39 µM (inactive) | 87.9 µM (inactive) | 4.29 µM (inactive) | 23.4 µM (inactive) | > 100 µM (inactive) | 1.82 µM (inactive) | 1.28 µM (inactive) | 19.7 µM (inactive) | 41.8 µM (inactive) | > 100 µM (inactive) | 7.05 µM (inactive) | > 94.4 µM (inactive) | > 100 µM (inactive) | > 95.5 µM (inactive) | 60.1 µM (inactive) | 91.6 µM (inactive) | 1.6 µM (inactive) | 30.3 µM (inactive) | 70.1 µM (inactive)
5 | CC(=O)OC12c3ccccc3C(c3ccccc31)C1C(=O)N(N=C(C)C)C(=O)C12 (configuration not stated) | 70.8 µM (inactive) | > 100 µM (inactive) | > 100 µM (inactive) | > 100 µM (inactive) | > 100 µM (inactive) | > 100 µM (inactive) | > 100 µM (inactive) | > 100 µM (inactive) | > 100 µM (inactive) | > 100 µM (inactive) | > 100 µM (inactive) | > 100 µM (inactive) | > 100 µM (inactive) | > 100 µM (inactive) | > 100 µM (inactive) | > 100 µM (inactive) | – | > 100 µM (inactive) | > 100 µM (inactive) | –
6 | O=C1c2c(Br)sc(Br)c2[C@@H](O)[C@H]1O | 19.4 µM (inactive) | 17.1 µM (inactive) | 16.2 µM (inactive) | 17.1 µM (inactive) | 19.9 µM (inactive) | 16.6 µM (inactive) | 9.14 µM (inactive) | 16.8 µM (inactive) | 14.3 µM (inactive) | 14.1 µM (inactive) | 15.6 µM (inactive) | 22.4 µM (inactive) | 2.24 µM (inactive) | 18.1 µM (inactive) | 53.7 µM (inactive) | 15.2 µM (inactive) | 17.1 µM (inactive) | 21.2 µM (inactive) | 16.9 µM (inactive) | 19.2 µM (inactive)
7 | B.CC(=O)OC1CN2CCC1CC2 (configuration not stated) | > 100 µM (inactive) | – | > 100 µM (inactive) | > 100 µM (inactive) | > 100 µM (inactive) | > 100 µM (inactive) | > 100 µM (inactive) | > 100 µM (inactive) | – | > 100 µM (inactive) | > 100 µM (inactive) | > 100 µM (inactive) | > 100 µM (inactive) | > 100 µM (inactive) | > 100 µM (inactive) | > 100 µM (inactive) | > 100 µM (inactive) | > 100 µM (inactive) | > 100 µM (inactive) | –
8 | CCN(CC)C(=S)SC1C(=O)NC(=O)NC1=O | > 100 µM (inactive) | > 100 µM (inactive) | > 100 µM (inactive) | > 100 µM (inactive) | > 100 µM (inactive) | > 100 µM (inactive) | > 100 µM (inactive) | > 100 µM (inactive) | > 100 µM (inactive) | > 100 µM (inactive) | > 100 µM (inactive) | 0.6 µM (active) | > 100 µM (inactive) | > 100 µM (inactive) | > 100 µM (inactive) | > 100 µM (inactive) | > 100 µM (inactive) | > 100 µM (inactive) | > 100 µM (inactive) | > 100 µM (inactive)
9 | O=C(NC1=C(Cl)C(=O)c2ccccc2C1=O)c1ccc(F)cc1 | 1.9 µM (inactive) | – | 1.25 µM (inactive) | 3.62 µM (inactive) | 4.85 µM (inactive) | 4.4 µM (inactive) | 0.341 µM (active) | 0.455 µM (active) | 2.44 µM (inactive) | 5.47 µM (inactive) | – | 3.37 µM (inactive) | 2.53 µM (inactive) | 4.06 µM (inactive) | 5.09 µM (inactive) | 10.8 µM (inactive) | – | 3.08 µM (inactive) | 13.9 µM (inactive) | 1.61 µM (inactive)
10 | CC(C)(C)c1cc2c(O)c(c1)Cc1cc(C(C)(C)C)cc(c1O)Cc1cc(C(C)(C)C)cc(c1O)Cc1cc(C(C)(C)C)cc(c1O)Cc1cc(C(C)(C)C)cc(c1O)Cc1cc(C(C)(C)C)cc(c1O)Cc1cc(C(C)(C)C)cc(c1O)Cc1cc(C(C)(C)C)cc(c1O)C2 | > 50 µM (inactive) | > 50 µM (inactive) | > 50 µM (inactive) | > 50 µM (inactive) | > 50 µM (inactive) | > 50 µM (inactive) | > 50 µM (inactive) | > 50 µM (inactive) | > 50 µM (inactive) | > 50 µM (inactive) | > 50 µM (inactive) | > 50 µM (inactive) | > 50 µM (inactive) | > 50 µM (inactive) | > 50 µM (inactive) | > 50 µM (inactive) | > 50 µM (inactive) | > 50 µM (inactive) | > 50 µM (inactive) | > 50 µM (inactive)
11 | COc1cc(OC)c2c3c(OC)cc(OC)c4c(=O)c(O)c(C[C@@H](C)O)c(c5c(C[C@@H](C)O)c(O)c(=O)c1c25)c43 | 16.6 µM (inactive) | 30.7 µM (inactive) | 22.4 µM (inactive) | 21.2 µM (inactive) | 30.6 µM (inactive) | 1.89 µM (inactive) | 11.3 µM (inactive) | 16 µM (inactive) | 3.72 µM (inactive) | 19.8 µM (inactive) | 62.2 µM (inactive) | 30.3 µM (inactive) | 1.02 µM (active) | 40.2 µM (inactive) | 53 µM (inactive) | 19.1 µM (inactive) | 19 µM (inactive) | 23.2 µM (inactive) | 22.4 µM (inactive) | 14.5 µM (inactive)
12 | COC(=O)C1C(=O)CC(C)(O)C(C(=O)OC)C1c1ccc(N(C)C)cc1 (configuration not stated) | > 100 µM (inactive) | > 100 µM (inactive) | > 100 µM (inactive) | > 100 µM (inactive) | > 100 µM (inactive) | > 100 µM (inactive) | > 100 µM (inactive) | 8.67 µM (inactive) | > 100 µM (inactive) | > 100 µM (inactive) | – | > 100 µM (inactive) | > 100 µM (inactive) | > 100 µM (inactive) | > 100 µM (inactive) | 12 µM (inactive) | > 100 µM (inactive) | > 100 µM (inactive) | > 100 µM (inactive) | > 100 µM (inactive)
13 | O=C(NCc1ccccc1)c1nn[nH]c1O | > 100 µM (inactive) | > 100 µM (inactive) | > 100 µM (inactive) | > 100 µM (inactive) | > 100 µM (inactive) | > 100 µM (inactive) | > 100 µM (inactive) | > 100 µM (inactive) | > 100 µM (inactive) | > 100 µM (inactive) | > 100 µM (inactive) | > 100 µM (inactive) | > 100 µM (inactive) | > 100 µM (inactive) | > 100 µM (inactive) | > 100 µM (inactive) | > 100 µM (inactive) | > 100 µM (inactive) | > 100 µM (inactive) | –
14 | O=C(O)CCNc1[nH]cnc2ncnc1-2 | > 100 µM (inactive) | > 100 µM (inactive) | > 100 µM (inactive) | > 100 µM (inactive) | > 100 µM (inactive) | > 100 µM (inactive) | > 100 µM (inactive) | > 100 µM (inactive) | > 100 µM (inactive) | > 100 µM (inactive) | > 100 µM (inactive) | > 100 µM (inactive) | 0.621 µM (active) | > 100 µM (inactive) | > 100 µM (inactive) | > 100 µM (inactive) | > 100 µM (inactive) | > 100 µM (inactive) | > 100 µM (inactive) | > 100 µM (inactive)
